Results on 1 compound are retold here after patent publication US20050282745A1, “Non-mammalian GnRH analogs and uses thereof in regulation of fertility and pregnancy” (priority 2001, published 2005).

Series [1] concerns chorionic peptidase-1 (C-ase-1).
Experimental: (§3) Using the incubation system developed for the C-ase-1 activity, the degradation of each analog was tested. […] These studies were done using the C-ase-1 enzyme activity assay as described previously. […] The product formed was calculated by subtraction, and its inverse plotted against the inverse of the original substrate concentrations to determine the nature of the competition. The Ki was to be determined by plotting the inverse of the product that formed verses the inhibitor used.
(§4) The concentration of the product of the degraded GnRH was quantified by subtracting the remaining mammalian GnRH from the starting concentrations of mammalian GnRH. […] The Ks for the degradation of mammalian GnRH was calculated from the x axis intercept using Lineweaver-Burke double reciprocal plot of the concentration of the product formed versus the concentration of the substrate used.
(§5) The reaction was stopped by heating at 85° C. for 10 minutes. The remaining GnRH was determined using a specific radioimmunoassay. The formation of product, i.e., the N-terminal nonapeptide of GnRH, was calculated by subtraction and its inverse was plotted versus the inverse of the initial substrate to determine the Ks of the reaction. […] The relative potency of each analog was compared.
(§6) Using the incubation system developed for the C-ase-1 activity, the degradation of each analog was studied. […] The inverse of the product was plotted against the inverse of the original substrate concentrations to determine Ks of the competition. The Ki was determined by plotting the inverse of the product formed verses the inhibitor used.
Series [2] shares this test system. Kind of series: C-ase-1 enzyme activity assay, competition for degradation of GnRH. Conditions: Lineweaver-Burke plot.
Experimental: as §3, §4, §5, §6
The test system of series [3] is human placental GnRH receptor. Kind of series: Placental GnRH receptor binding, radiolabeled D-Arg(6)-chicken II GnRH-aza-Gly(10)-amide label. Conditions: versus Buserelin label. The protocol: (§1) The newly synthesized non-mammalian GnRH analogs and other commercially available mammalian GnRH analogs were used in placental receptors binding and enzyme stability study described here. On the basis of these studies, the most receptor potent and enzyme-stable analogs were chosen for further biopotency studies. GnRH receptors were purified from the membrane fractions from placentas. The purification procedure for the placental GnRH receptor was performed using a modification of the method described by Bramley et al., which reference is specifically incorporated herein by reference for the purpose. Addition of enzyme inhibitors for the endogenous C-ase-1 were used as well as agents for receptor stabilization. Initially, receptor-binding assays using ^125I-Buserelin as label were performed. The competitive binding of each of the analogs was studied over a dose range of 10^−11 to 10^−6 M. Incubation was at room temperature and receptor bound label was precipitated with polyethylene glycol. Specific and non-specific binding was determined. The data was subjected to Scatchard analysis. The non-mammalian GnRH analogs' ability to bind to the placental GnRH receptor was compared to that for synthetic mammalian GnRH (SEQ ID NO: 5), Buserelin (SEQ ID NO: 10) and other mammalian analogs. […] This way, the receptor affinity for that analog could be precisely determined. Receptors from three different term placentas were used to study each of these analogs. […] Bramley T A, McPhie C A, Menzies G S 1994 Human placental gonadotropin-releasing hormone (GnRH) binding sites: 111. Changes in GnRH binding levels with stage of gestation. Placenta 15:733-745.
(§2) In these and additional studies, placental GnRH receptors were purified from human term placentas after homogenization in 40 mM Tris (pH 7.4) and filtered through cheesecloth, followed by an initial centrifugation at 1,000×g for 10 minutes. The resulting supernatant was, again, centrifuged at 35,000×g for 30 minutes and the membrane pellet was collected and resuspended in Tris buffer with 0.3 M sucrose. The protein concentration was determined. Membranes were stored frozen at −20 C until use. Before use, placental membranes were diluted to 5,000 μg/mL with Tris buffer containing 0.5% BSA and 50 U/mL bacitracin. Placental membranes (100 μL) were used with varying concentrations of mammalian GnRH (SEQ ID NO: 5), Buserelin (SEQ ID NO: 10), chicken II GnRH (SEQ ID NO: 6), D-Arg (6)-chicken II GnRH-des-Gly (10)-ethylamide (SEQ ID NO: 2), or D-Arg (6)-chicken II GnRH-aza-Gly (10)-amide (SEQ ID NO: 2) (100 μL) and either radiolabeled Buserelin (SEQ ID NO: 10) or radiolabeled D-Arg (6)-chicken II GnRH-aza-Gly (10)-amide (SEQ ID NO: 2) (100 μL/tube and iodinated). Following incubation at room temperature for 4 hours, the bound and free hormones were separated using polyethylene glycol precipitation, followed by centrifugation. The binding affinity for each GnRH isoform or analog was calculated using the double reciprocal plot of bound versus free ligand. Each study was done using three different human term placental tissues.

Series [4] deals with human placental GnRH receptor. Briefly: Placental GnRH receptor binding, 125I-Buserelin label. Particulars: 125I-Buserelin, Example VI; read-out: Kd. The protocol: as §1, with “On the basis of these studies, the most receptor potent and enzyme-stable analogs were chosen for further biopotency studies.” left out, “Changes in GnRH binding levels with stage of gestation.” left out
as §2, with “Placental membranes (100 μL) were used with varying concentrations of mammalian GnRH (SEQ ID NO: 5), Buserelin (SEQ ID NO: 10), chicken II GnRH (SEQ ID NO: 6), D-Arg (6)-chicken II GnRH-des-Gly (10)-ethylamide (SEQ ID NO: 2), or D-Arg (6)-chicken II GnRH-aza-Gly (10)-amide (SEQ ID NO: 2) (100 μL) and either radiolabeled Buserelin (SEQ ID NO: 10) or radiolabeled D-Arg (6)-chicken II GnRH-aza-Gly (10)-amide (SEQ ID NO: 2) (100 μL/tube and iodinated).” left out
Receptor assays were performed by incubating human term placental GnRH receptors with varying concentrations of GnRH or its analogs in the presence of ^125I-Buserelin. The reaction was stopped and the bound hormone precipitated with polyethylene glycol.

Series [5] deals with baboon ovarian enzymatic activity.
Experimental: In these studies the enzyme was in the ovarian extract.
In this assay, following incubation of the enzyme and GnRH, with and without the chosen analog, the reaction was stopped by heating and the remaining GnRH substrate was quantified by radioimmunoassay. The product formed is calculated by subtraction, and its inverse plotted against the inverse of the original substrate concentrations to determine the nature of the competition. The Ki was determined by plotting the inverse of the product formed versus the inhibitor used.
Series [6] relates to chorionic peptidase-1 (C-ase-1). Conditions: neutral pH; read-out: Km for degradation by C-ase-1; cited from earlier work.
Series [7] deals with human term placental explants. Kind of series: Static explant culture, release of hCG, progesterone, PGE2. It counts as cell-based. Particulars: 0.25-1.00 μM, four placentas. The text has this: The biological activity of the newly synthesized non-mammalian GnRH analogs was studied using a static implant culture system. This system allows for inexpensive extended activity studies. Mammalian GnRH action on the human placenta release of hCG, progesterone and prostaglandins were defined using this system. Replicate cultures were studied, thus allowing for comparison of different doses of each non-mammalian GnRH analog to mammalian GnRH (SEQ ID NO: 5), as well as direct competition assays. […] These studies were repeated using different human placentas. Siler-Khodr T M, Khodr G S, Valenzuela G, Rhode J 1986 Gonadotropin-releasing hormone effects on placental hormones during gestation: II. Progesterone, estrone, estradiol and estriol. Biol Reprod 34:255-264; Siler-Khodr T M, Khodr G S, Valenzuela G, Rhode J 1986 Gonadotropin-releasing hormone effects on placental hormones during gestation: 1 Alpha-human chorionic gonadotropin, human chorionic gonadotropin and human chorionic somatomammotropin. Biol Reprod 34:245-254; Siler-Khodr T M, Khodr G S, Valenzuela G, Harper J, Rhode J 1986 GnRH effects on placental hormones during gestation. 111 Prostaglandin E, prostaglandin F, and 13, 14-dihydro-15-keto-prostaglandin F. Biol Reprod 35:312-319.
In these and additional studies, an explant culture system was used to determine the effect of mammalian GnRH (SEQ ID NO: 5), chicken II GnRH (SEQ ID NO: 6), or the D-Arg(6)-chicken II GnRH-aza-Gly(10)-amide analog (SEQ ID NO: 2) on the release of the hCG, progesterone, and prostaglandin E2. Human term placentas were dissected free of membranes, minced into fragments of 5 mm, rinsed in medium, and a total weight of ˜100 mg (20 explants) was placed on a sterile filter paper resting on an organ culture grid such that they touched the surface of the culture medium, but were not immersed in it. The medium contained penicillin, streptomycin, and fungizone at 100 U/mL, 100 μg/mL, and 2.5 μg/mL respectively with and without varying doses of GnRH isoforms or analogs was added to each Petri dish. Triplicate chambers for each media were made and incubated at 37 C in a humidified chamber with an atmosphere of 5% CO2 and 95% air. Spent media were collected and replaced after 2 hours, 24 hours, and 48 hour of culture and stored frozen at −20° C. until assayed for hormones. HCG, progesterone, and PGE2 were measured using specific double antibody procedures as described previously. The chicken II GnRH analog (SEQ ID NO: 2) was studied using four different human term placentas, and the native chicken II GnRH isoform was also studied using one human term placenta. Gibbons J M, Mitnick M, Chieffo V 1975 In vitro biosynthesis, of TSH- and LH-releasing factors by the human placenta. Am J Obstet Gynecol 121:127-131.

As a reminder, the Kd is the free concentration of one partner at which half of the binding sites on the other are occupied at equilibrium, for simple one-to-one binding. By Km is commonly meant the concentration of substrate that gives half-maximal velocity. Take `CC(C)C[C@H](NC(=O)CNC(=O)[C@H](Cc1ccc(O)cc1)NC(=O)[C@H](CO)NC(=O)[C@H](Cc1c[nH]c2ccccc12)NC(=O)[C@H](Cc1cnc[nH]1)NC(=O)[C@@H]1CCC(=O)N1)C(=O)N[C@@H](CCCNC(=N)N)C(=O)N1CCC[C@H]1C(=O)NCC(N)=O` [mammalian GnRH]: the “degradation by / competition for C-ase-1, in words” value in series [1] is “actively degraded”. Besides, in series [2], the “Ks for degradation by C-ase-1” value is given as approximately 30 nM. Further, the “decrease of affinity when the analog is used as label” value in series [3] is reported as 1.5 times. Further, the Kd in series [4] amounted to 1000 nM. Besides, the “Ks for degradation by ovarian tissues” value in series [5] is on record as approximately 30 nM. In addition, in series [6], the Km was 0.01 µM. For the same compound, in series [7], the “effect on progesterone release” value was “not affected by mammalian GnRH (SEQ ID NO: 5) in two of four placentas, but in one placenta it was significantly increased and in the other was decreased”; the “effect on release of hCG” value is on record as “no significant effect”.
